From paper PMC7020459, “Antioxidant and Enzyme Inhibitory Properties of the Polyphenolic-Rich Extract from an Ancient Apple Variety of Central Italy (Mela Rosa dei Monti Sibillini)” (Plants, 2019)

Experiments:
[1] = target: T1, lipase type II from porcine pancreas (Sus scrofa, UniProt P00591); assay: lipase inhibition assay; assay type: biochemical; conditions: maximal inhibition reached
T1 construct: purchased Sigma-Aldrich (Madrid, Spain); host or cells: porcine pancreas
T1 sequence (P00591 1-450): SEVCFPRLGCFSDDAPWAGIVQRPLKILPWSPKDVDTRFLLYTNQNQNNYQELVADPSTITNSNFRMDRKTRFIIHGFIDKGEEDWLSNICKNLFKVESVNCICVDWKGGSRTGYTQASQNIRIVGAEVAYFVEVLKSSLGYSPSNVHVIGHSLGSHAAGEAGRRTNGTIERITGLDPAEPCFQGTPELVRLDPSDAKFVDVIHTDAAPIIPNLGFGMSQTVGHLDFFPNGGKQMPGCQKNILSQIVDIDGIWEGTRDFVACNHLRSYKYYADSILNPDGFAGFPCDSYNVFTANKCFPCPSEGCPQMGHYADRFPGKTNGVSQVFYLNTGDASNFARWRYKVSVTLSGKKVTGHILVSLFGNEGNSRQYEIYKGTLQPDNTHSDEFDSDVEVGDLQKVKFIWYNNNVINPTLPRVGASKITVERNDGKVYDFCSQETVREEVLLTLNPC
Procedure: The lipase inhibition assay was based on a previous protocol. […] Then, 20 µL of pNPB (10 mM in ethanol) was added to each well and incubated for another 15 min at 37 °C. Blanks and control wells were made.

[2] = DPPH free radical scavenging assay; conditions: concentration causing 50% decrease in initial DPPH concentration
Procedure: (§1) The in vitro antioxidant activity of the different samples was assessed through three assays by means of standard methods using a SPECTROstar Omega (BMG LABTECH GmbH, Ortenberg, Germany) microplate reader. For the preparation of the stock solution, around 10 ± 1 mg of the different samples were diluted in 1 mL of methanol in an Eppendorf. Then, 100 µL of this stocked solution was diluted with 900 µL of methanol for the analyses. All analyses were conducted at least twice.
The free radical scavenging activity was evaluated using 1, 1-diphenyl-2-picrylhydrazyl (DPPH) on microplate analytical assay, as described by Beghelli et al. and Censi et al.. […] The absorbance of the wells was measured at 517 nm with a microplate reader against a blank prepared using methanol in addition to the DPPH reagent to get rid of any inherent solvent activity.
The total radical scavenging activity was measured using 2, 2′-azino-bis (3-ethylbenzothiazoline-6-sulphonic acid) (ABTS) assay. […] The working solution was obtained by filtration and dilution with methanol of the previous mixture to give an absorbance of AU 1 at 734 nm. […] After 15 min of incubation, the absorbance of each well was determined at 734 nm. […]

[3] = ABTS radical cation decolorization assay; conditions: concentration causing 50% decrease in initial ABTS concentration
Procedure: as §1
The total radical scavenging activity was measured using 2, 2′-azino-bis (3-ethylbenzothiazoline-6-sulphonic acid) (ABTS) assay. The ABTS^•+ solution was freshly prepared by the oxidation of ABTS (10 mg) by MnO2 (0.75 g) in the presence of distilled water (4 mL), followed by 30 min of incubation away from light at room temperature. The working solution was obtained by filtration and dilution with methanol of the previous mixture to give an absorbance of AU 1 at 734 nm. The extract concentrations used were the same as for the DPPH assay, and 200 µL of the ABTS solution was added to the wells. After 15 min of incubation, the absorbance of each well was determined at 734 nm. Trolox (6-hydroxy-2,5,7,8-tetramethylchroman-2-carboxylic acid) was the reference compound used in both DPPH and ABTS assays. […]

SMILES	lipase inhibition reached [1]	DPPH IC50 [2]	ABTS IC50 [3]
CCCCCCCCCCC[C@@H](C[C@@H]1OC(=O)[C@H]1CCCCCC)OC(=O)[C@H](CC(C)C)NC=O [Orlistat]	75%	–	–
Cc1c(C)c2c(c(C)c1O)CCC(C)(C(=O)O)O2 (stereo not drawn) [Trolox, 6-hydroxy-2,5,7,8-tetramethylchroman-2-carboxylic acid]	–	5.3 ± 1.1 µg/mL	4.7 ± 0.2 µg/mL
